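These data come from cells grown in 96-well plates and exposed to compound for 48 hours at five concentrations. GI50 is the concentration that inhibits growth by half. TGI: total growth inhibition.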
Key:
Assay in all cases: NCI anticancer screen, dose series, 48 h
786-0 renal = test system: 786-0 renal
A498 renal = test system: A498 renal
A549 NSCLC = test system: A549 NSCLC
ACHN renal = test system: ACHN renal
BT-549 breast = test system: BT-549 breast
CAKI-1 renal = test system: CAKI-1 renal
CCRF-CEM leukemia = test system: CCRF-CEM leukemia
COLO 205 colon = test system: COLO 205 colon
DU-145 prostate = test system: DU-145 prostate
HCC-2998 colon = test system: HCC-2998 colon
HCT-116 colon = test system: HCT-116 colon
HCT-15 colon = test system: HCT-15 colon
HL-60(TB) leukemia = test system: HL-60(TB) leukemia
HOP-62 NSCLC = test system: HOP-62 NSCLC
HOP-92 NSCLC = test system: HOP-92 NSCLC
HS 578T breast = test system: HS 578T breast
HT29 colon = test system: HT29 colon
IGROV1 ovarian = test system: IGROV1 ovarian
K-562 leukemia = test system: K-562 leukemia
KM12 colon = test system: KM12 colon
LOX IMVI melanoma = test system: LOX IMVI melanoma
M14 melanoma = test system: M14 melanoma
MALME-3M melanoma = test system: MALME-3M melanoma
MCF7 breast = test system: MCF7 breast
MDA-MB-231 breast = test system: MDA-MB-231 breast
MDA-MB-435 = test system: MDA-MB-435
MOLT-4 leukemia = test system: MOLT-4 leukemia
NCI-H226 lung = test system: NCI-H226 lung
NCI-H23 lung = test system: NCI-H23 lung
NCI-H460 lung = test system: NCI-H460 lung
NCI-H522 lung = test system: NCI-H522 lung
NCI/ADR-RES ovarian = test system: NCI/ADR-RES ovarian
OVCAR-3 ovarian = test system: OVCAR-3 ovarian
OVCAR-4 ovarian = test system: OVCAR-4 ovarian
OVCAR-5 ovarian = test system: OVCAR-5 ovarian
OVCAR-8 ovarian = test system: OVCAR-8 ovarian
PC-3 prostate = test system: PC-3 prostate
RPMI-8226 leukemia = test system: RPMI-8226 leukemia
RXF 393 renal = test system: RXF 393 renal
SF-268 CNS = test system: SF-268 CNS
SF-295 CNS = test system: SF-295 CNS
SF-539 CNS = test system: SF-539 CNS
SK-MEL-2 melanoma = test system: SK-MEL-2 melanoma
SK-MEL-28 melanoma = test system: SK-MEL-28 melanoma
SK-MEL-5 melanoma = test system: SK-MEL-5 melanoma
SK-OV-3 ovarian = test system: SK-OV-3 ovarian
SN12C renal = test system: SN12C renal
SNB-19 CNS = test system: SNB-19 CNS
SNB-75 CNS = test system: SNB-75 CNS
SR leukemia = test system: SR leukemia
SW-620 colon = test system: SW-620 colon
T-47D breast = test system: T-47D breast
TK-10 renal = test system: TK-10 renal
U251 CNS = test system: U251 CNS
UACC-257 melanoma = test system: UACC-257 melanoma
UACC-62 melanoma = test system: UACC-62 melanoma
UO-31 renal = test system: UO-31 renal

## COc1ccc(-c2nsc3c2NC(=O)CC3c2cccc(Cl)c2)cc1 (centres undefined)
786-0 renal
  GI50: 9.39 µM
  TGI: > 100 µM
A498 renal
  GI50: 1.34 µM
  TGI: 8.1 µM
A549 NSCLC
  GI50: 0.987 µM
  TGI: > 100 µM
ACHN renal
  GI50: 7.5 µM
  TGI: > 100 µM
BT-549 breast
  GI50: 7.51 µM
  TGI: > 100 µM
CAKI-1 renal
  GI50: 0.981 µM
  TGI: 70.1 µM
CCRF-CEM leukemia
  GI50: 2.44 µM
  TGI: > 100 µM
COLO 205 colon
  GI50: 0.771 µM
  TGI: > 42.4 µM
DU-145 prostate
  GI50: 3.3 µM
  TGI: > 100 µM
HCC-2998 colon
  GI50: 11.5 µM
  TGI: > 100 µM
HCT-116 colon
  GI50: 0.83 µM
  TGI: > 100 µM
HCT-15 colon
  GI50: 0.646 µM
  TGI: > 100 µM
HL-60(TB) leukemia
  GI50: 2.28 µM
  TGI: > 27.6 µM
HOP-62 NSCLC
  GI50: 4.04 µM
  TGI: 98.1 µM
HOP-92 NSCLC
  GI50: 1.09 µM
  TGI: 33.6 µM
HS 578T breast
  GI50: 2.98 µM
  TGI: > 65.4 µM
HT29 colon
  GI50: 0.377 µM
  TGI: 4.91 µM
IGROV1 ovarian
  GI50: 3.33 µM
  TGI: > 100 µM
K-562 leukemia
  GI50: 0.399 µM
  TGI: > 100 µM
KM12 colon
  GI50: 0.743 µM
  TGI: > 100 µM
LOX IMVI melanoma
  GI50: 5.57 µM
  TGI: > 100 µM
M14 melanoma
  GI50: 1.46 µM
  TGI: > 100 µM
MALME-3M melanoma
  GI50: 6.59 µM
  TGI: > 100 µM
MCF7 breast
  GI50: 0.809 µM
  TGI: > 100 µM
MDA-MB-231 breast
  GI50: 2.37 µM
  TGI: > 100 µM
MDA-MB-435
  GI50: 0.226 µM
  TGI: 0.917 µM
MOLT-4 leukemia
  GI50: 4.11 µM
  TGI: > 100 µM
NCI-H226 lung
  GI50: 10.8 µM
  TGI: > 100 µM
NCI-H23 lung
  GI50: 4.62 µM
  TGI: > 100 µM
NCI-H460 lung
  GI50: 1.22 µM
  TGI: > 100 µM
NCI-H522 lung
  GI50: 0.766 µM
  TGI: 5.99 µM
NCI/ADR-RES ovarian
  GI50: 0.604 µM
  TGI: > 100 µM
OVCAR-3 ovarian
  GI50: 1.74 µM
  TGI: > 29 µM
OVCAR-4 ovarian
  GI50: 7.62 µM
  TGI: > 100 µM
OVCAR-5 ovarian
  GI50: 5.3 µM
  TGI: > 100 µM
OVCAR-8 ovarian
  GI50: 4.35 µM
  TGI: > 100 µM
PC-3 prostate
  GI50: 2.12 µM
  TGI: > 100 µM
RPMI-8226 leukemia
  GI50: 3.6 µM
  TGI: > 100 µM
RXF 393 renal
  GI50: 2.57 µM
  TGI: 33 µM
SF-268 CNS
  GI50: 8.04 µM
  TGI: > 100 µM
SF-295 CNS
  GI50: 1.99 µM
  TGI: 13.5 µM
SF-539 CNS
  GI50: 1.75 µM
  TGI: 6.06 µM
SK-MEL-2 melanoma
  GI50: 0.878 µM
  TGI: 9.93 µM
SK-MEL-28 melanoma
  GI50: 4.54 µM
  TGI: > 100 µM
SK-MEL-5 melanoma
  GI50: 1.38 µM
  TGI: 51.6 µM
SK-OV-3 ovarian
  GI50: 3.31 µM
  TGI: > 100 µM
SN12C renal
  GI50: > 22.8 µM
  TGI: > 100 µM
SNB-19 CNS
  GI50: 5.44 µM
  TGI: > 100 µM
SNB-75 CNS
  GI50: 1.53 µM
  TGI: 7.46 µM
SR leukemia
  GI50: 0.519 µM
  TGI: > 100 µM
SW-620 colon
  GI50: 0.497 µM
  TGI: > 100 µM
T-47D breast
  GI50: 3.54 µM
  TGI: > 100 µM
TK-10 renal
  GI50: 3.48 µM
  TGI: > 100 µM
U251 CNS
  GI50: 2.33 µM
  TGI: > 100 µM
UACC-257 melanoma
  GI50: 10.8 µM
  TGI: > 100 µM
UACC-62 melanoma
  GI50: 2.31 µM
  TGI: > 100 µM
UO-31 renal
  GI50: 5.22 µM
  TGI: > 100 µM

Reference: PubChem BioAssay (NCI)
